Experimental data from US20100249184A1, “INDUCTION AND/OR MAINTENANCE OF TUMOR DORMANCY BY DISRUPTION OF UROKINASE PLASMINOGEN ACTIVATOR RECEPTOR-INTEGRIN INTERACTION” (MOUNT SINAI SCHOOL OF MEDICINE, priority 2007, published 2010).

Tests used:
[1] = system: T-ELK:GFP cells; test: ERK activation reporter (GFP, FACS) in T-ELK:GFP cells; format: cell-based, human; conditions: 38 hrs, untreated 7.4%
From the text: FIGS. 6A-E show ERK activation and growth in vivo. In FIG. 6A, HEK293 and D-Hep3 cells transfected with uPAR^wt produces stronger activation of ERK than cells transfected with uPAR^S245A or with vector (top and middle panels); HEK293, and D-HEp3 cells, transiently transfected with pcDNA3.1 vector, or with an expression construct for uPAR^wt or uPAR^S245A lysed 48 hrs later and analyzed by Western blotting for phospho-ERK (FIG. 6A, top panels) and ERK 1/2 (FIG. 6A, middle panels) with specific antibodies. The bands were scanned with NIH Image and plotted. The ratio of phospho-ERK to ERK was calculated and expressed as a fraction of the ratio of pcDNA3.1 transfected cells. In FIG. 6A (bottom panels), uPAR^wt and uPAR^S245A expression was determined by Western blotting. […] D-HEp3 cells transfected with vector, or uPAR^wt or uPAR^S245A were detached with EDTA 36 hrs after transfection and 7×10^5 cells in 30 μl PBS were inoculated onto chorioallantoic membranes (“CAMs”) of 10-day old chick embryos. Each sample was inoculated onto 4 CAMs. The CAMs were excised 4 days later and the number of tumor cells was determined as in the Examples. The bars show mean and standard deviation. Paired t-test vector/uPAR^S245A p=0.76, vector/uPAR^wt p=0.0005, uPAR^S245/uPAR^wt p=0.0002. Inset: uPAR expression detected by Western blot with R2 antibody. In FIG. 6C, peptide 240-248, but not peptide 17-24, down regulates P-ERK level. […] The cells were lysed and the lysates were analyzed for P-ERK (FIG. 6C, upper panel) and total ERK (FIG. 6C, lower panel) by Western blotting. […] The cells were processed as in FIG. 6C, except that the bands were scanned by NIH Image the P-ERK/ERK ratio was calculated. […] The cells were detached and analyzed for GFP in FACS Canto using FACSDiva software. […]
[…] The cells were detached and analyzed for GFP by FACS analysis using FACS Canto (Becton Dickinson, Calif.) and FACSDiva software. […] Concentration dependence of P-ERK inhibition was analyzed by scanning P-ERK and ERK bands with NIH-Image and expressing their ratios as % of the ratio in untreated control (T-HEp3) cells. […]

[2] = target: T1, α5β1-integrin/uPAR complex (Homo sapiens, UniProt P05556+P08648); test: Disruption of preformed uPAR/α5β1-integrin complex (co-immunoprecipitation); format: biochemical; conditions: cell lysates incubated with 20 μM peptide, 20 min at 4° C., pull-down with anti-α5β1 (HA5)
T1 construct: endogenous in cells; host or cells: T-HEp3 (human epidermoid carcinoma) cell lysate
T1 sequence (P08648 42-894 limits assumed): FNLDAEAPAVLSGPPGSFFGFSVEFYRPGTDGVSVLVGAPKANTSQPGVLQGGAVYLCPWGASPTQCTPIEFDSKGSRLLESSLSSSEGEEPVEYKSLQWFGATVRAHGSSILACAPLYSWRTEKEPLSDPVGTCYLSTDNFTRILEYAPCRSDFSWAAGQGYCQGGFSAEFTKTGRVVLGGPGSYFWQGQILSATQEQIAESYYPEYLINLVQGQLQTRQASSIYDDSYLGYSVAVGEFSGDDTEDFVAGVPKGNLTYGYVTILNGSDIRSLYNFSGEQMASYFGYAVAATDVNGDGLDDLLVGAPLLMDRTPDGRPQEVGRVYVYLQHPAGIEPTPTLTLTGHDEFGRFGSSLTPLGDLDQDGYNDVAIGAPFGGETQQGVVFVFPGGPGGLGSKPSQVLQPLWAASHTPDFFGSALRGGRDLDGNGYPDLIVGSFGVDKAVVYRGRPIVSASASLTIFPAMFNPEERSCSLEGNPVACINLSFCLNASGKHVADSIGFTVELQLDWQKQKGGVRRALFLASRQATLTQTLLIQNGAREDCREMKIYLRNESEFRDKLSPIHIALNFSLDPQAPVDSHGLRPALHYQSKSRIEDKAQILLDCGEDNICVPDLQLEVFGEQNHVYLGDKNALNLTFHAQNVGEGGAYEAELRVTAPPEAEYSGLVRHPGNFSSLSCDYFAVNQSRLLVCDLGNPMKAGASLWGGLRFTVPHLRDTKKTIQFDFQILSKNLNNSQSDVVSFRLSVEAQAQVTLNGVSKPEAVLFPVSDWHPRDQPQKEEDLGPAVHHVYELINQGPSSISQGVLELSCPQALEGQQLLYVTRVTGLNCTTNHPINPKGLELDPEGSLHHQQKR
T1 sequence (P08648 895-1049 limits assumed): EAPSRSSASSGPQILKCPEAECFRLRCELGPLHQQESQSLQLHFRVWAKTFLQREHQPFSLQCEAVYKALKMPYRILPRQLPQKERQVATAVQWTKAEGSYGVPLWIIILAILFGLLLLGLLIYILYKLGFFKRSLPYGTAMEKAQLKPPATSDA
T1 sequence (P05556 21-798): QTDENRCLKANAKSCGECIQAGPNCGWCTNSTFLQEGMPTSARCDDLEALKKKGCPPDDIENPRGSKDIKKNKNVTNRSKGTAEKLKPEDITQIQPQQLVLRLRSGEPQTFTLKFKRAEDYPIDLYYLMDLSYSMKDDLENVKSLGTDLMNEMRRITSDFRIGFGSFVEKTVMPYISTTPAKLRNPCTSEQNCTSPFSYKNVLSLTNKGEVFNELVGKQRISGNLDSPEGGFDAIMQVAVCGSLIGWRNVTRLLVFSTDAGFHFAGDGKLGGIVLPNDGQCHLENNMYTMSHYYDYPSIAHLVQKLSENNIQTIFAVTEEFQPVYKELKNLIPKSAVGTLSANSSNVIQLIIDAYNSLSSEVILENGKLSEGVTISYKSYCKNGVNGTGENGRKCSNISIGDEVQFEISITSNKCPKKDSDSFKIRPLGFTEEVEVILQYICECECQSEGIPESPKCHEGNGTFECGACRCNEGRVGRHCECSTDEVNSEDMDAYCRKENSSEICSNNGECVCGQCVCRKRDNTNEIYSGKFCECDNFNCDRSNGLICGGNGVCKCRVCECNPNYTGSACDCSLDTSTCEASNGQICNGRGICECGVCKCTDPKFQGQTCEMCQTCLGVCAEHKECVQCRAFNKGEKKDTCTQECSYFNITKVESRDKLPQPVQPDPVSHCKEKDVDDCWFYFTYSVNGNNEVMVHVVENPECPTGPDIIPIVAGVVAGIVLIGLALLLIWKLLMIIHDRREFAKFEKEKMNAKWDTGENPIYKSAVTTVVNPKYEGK
Procedure: FIGS. 5A-B show the physical interaction between uPAR and α5β1-integrin. […] D-HEp3 cells were transfected with vector (pcDNA3.1) alone or with constructs expressing uPAR^wt or uPAR^S245A and after 48 hrs the cells were surface biotinylated and lysed as described in the Examples. Half of each lysate (0.8 mg of protein) was immunoprecipitated with 5 μg monoclonal anti-uPAR(R3) antibody and half with 5 μg monoclonal anti-α5β1-integrin (HA5) antibody. Isotype-matched IgG served as negative control. The immunoprecipitates were separated on an SDS-PAGE and the bands were detected with streptavidin-HRP conjugate and ECL. […] The numbers represent uPAR precipitated by anti-α5β1 antibody as percent of total uPAR. The experiment was repeated 5 times using the same and additional anti-integrin and anti-uPAR antibodies with essentially similar results. FIG. 5B is a graph showing the disruption of uPAR and α5β1-integrin complex with peptides 240-248 and S245A. T-HEp3 cells were surface biotinylated and lysed as described in the Examples. The lysate was precleared with isotype-matched IgG and aliquots containing 0.8 mg protein were incubated with peptides 240-248 and S245A (5 μM and 20 μM) or without peptides (Control, C) for 20 min at 4° C. followed by IP with 5 μg of monoclonal anti-α5β1-integrin (HAS) antibody for 90 min. The immunoprecipitates were analyzed as in FIG. 5A and scanned with NIH Image. […]

With “peptide 17-24: synthetic uPAR-derived peptide, domain I amino acid 17-24: CALGQDLC (SEQ ID NO:5); negative control [reference compound]” the “GFP-positive cells (% of total)” value ([1]; 25 μM peptide) was 6.2%.

In the case of “peptide 240-248: synthetic uPAR-derived peptide, domain III residues 240-248: GCATASMCQ (SEQ ID NO:9)”, the “disruption of preformed uPAR/integrin complex” value [2] is reported as “disrupted”, the “GFP-positive cells (% of total)” value ([1]; 5 μM peptide) is reported as 1.6% and the “GFP-positive cells (% of total)” value ([1]; 25 μM peptide) is reported as 0.7%.
